We go through five compounds from US11666519B2, “Personal care compositions with cystine” (Conopco, Inc., priority 2016, dated 2023).

Each structure is given as a SMILES string.

A short description of series [1]: Solubility of L-cystine neutralized with fatty acids, HPLC (Example 5). To be noted: for Solubility ppm cystine: excess L-cystine in NaOH neutralized with the named acid, equilibrated at least 72 hours, filtered, HPLC, 3 replicas; for pH: pH of the cystine solution neutralized with the named acid. As to the method:
Solubility of cystine was determined in the presence of alternative fatty acids. […] The precipitate upon neutralization was equilibrated with saturated solution for at least 72 hours. The solutions were then filtered through 0.45 micrometer PTFE or nylon (for C12) syringe filter and analysed on HPLC for cystine concentration.

Series [2] can be described thus: Microscopy of cystine crystals recrystallized from high pH solution in hystric acid/KOH acid soap mixtures (Example 1). The class given is physicochemical. The procedure: The size of crystals can be estimated by microscopy.
The soap/acid emulsions were prepared using hystric acid (55% palmitic acid/45% stearic acid) by melting the hystric acid at 75° C. and adding this melted acid to aqueous phase consisting of KOH. […] Solubilized cystine in high pH solution was then added to the acid/soap mixture as high pH solution. Depending on the procedure of addition, differences in final formulations have been achieved.
Formula A was prepared by dissolving the cystine in hot KOH solution. Melted hystric acid was then added to this hot (75° C.) aqueous solution of cystine, mixed and let cool down to room temperature while mixing. Formula B was prepared by adding the melted hystric acid to hot KOH solution, and adding the high pH solution of cystine while mixing all ingredients at 75° C. Formula C was prepared by adding the melted hystric acid to hot KOH solution, creating thus soap, cooling the soap to 50° C. and then adding the high pH solution of cystine The resulting acid soap mixtures were observed under microscope for the formation of cystine crystals. […] Addition of cystine solution to acid soap mixture at 50-60° C. is preferred as only small particles are formed. At this temperature the majority of acid soap exists in lamellar liquid crystal or lamellar gel with vary narrow aqueous layer creating a restrictive environment for cystine crystal growth. […]

The procedure of series [3]:
Additional samples with decreasing concentration of cystine were prepared to find the solubility limit for cystine in acid soap mixture. Samples in table 2 were prepared by Process A in table 1.
The samples were evaluated under microscope on the hot plate at 80° C.

The procedure of series [4]:
The compositional examples are in the table 3 below. The samples in table 3 were prepared by process C in table 1.
The results in Table 3 illustrate that other ingredients can be added to the inventive compositions, as long as lamellar bilayer liquid crystal or liquid gel structure remains intact.
The source holds these as a separate data set.

For series [5] the following is noted: cited from earlier work.

For the compound `CCCCCCCCCCCC(=O)O` [Dodecanoic (C12) with NaOH, Dodecanoic], in series [1], the Solubility ppm cystine is on record as 575 ppm and the pH was 7.6.

On to `CCCCCCCCCCCC(=O)O` [Dodecanoic (C12) with KOH, Dodecanoic], for which, in series [1], the Solubility ppm cystine stood at 490.6 ppm and the pH is 7.6.

In series [1], `CCCCCCCC/C=C\CCCCCCCC(=O)O` [Oleic acid (C18:1), Oleic acid] registered a Solubility ppm cystine of 246.8 ppm and a pH of 7.3.

For `N[C@@H](CSSC[C@H](N)C(=O)O)C(=O)O` [cystine], the “average particle size of cystine” value in series [2] (added from high pH solution to fatty acid-soap lamellar liquid crystal or lamellar gel) is listed as “less than 20 micrometers”. Also, in series [2] (cystine added at 75 C-80° C. when in the form of oil-in-water emulsion), the cystine crystal size entry is listed as “greater than 20 micrometers”. The “solubility of cystine in the hystric acid acid/soap media” value in series [3] was “greater than 700 ppm”. Further, the “solubility of cystine, minimal concentration” value in series [4] was “greater than 600 ppm”. Besides, in series [5], the “natural solubility of cystine” value is listed as 100 ppm.

In the case of `O=C(O)/C=C\C(=O)O` [Maleic], in series [1], the Solubility ppm cystine is 181.6 ppm and the pH stood at 6.6.
